“Also recorded” adds a separate entry of the source.
Legend:
[1] = target: T1, human neutrophil elastase (HNE) (Homo sapiens, UniProt P08246); test: Colorimetric assay of human neutrophil elastase inhibition; assay type: biochemical
T1 sequence (P08246 30-267): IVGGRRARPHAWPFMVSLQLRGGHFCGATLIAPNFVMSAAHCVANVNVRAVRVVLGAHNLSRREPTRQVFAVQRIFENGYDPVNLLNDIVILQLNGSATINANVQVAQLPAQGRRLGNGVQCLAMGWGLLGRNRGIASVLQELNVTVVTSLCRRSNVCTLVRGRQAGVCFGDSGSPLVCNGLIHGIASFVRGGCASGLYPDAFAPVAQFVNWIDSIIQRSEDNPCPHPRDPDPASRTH
Method: A peptide having the following sequence MeO-Suc-Ala-Ala-Pro-Val-pNA (SEQ ID NO:24) was used as an elastase substrate. One hundred (100) μL of a 0.425 mM solution of the SEQ ID NO:24 peptide substrate was placed in a series of microtiter plate wells. Varying amounts of human neutrophil elastase (HNE) were added to the microtiter plate wells. The optical density at 410 nm (OD410) was used to measure elastase activity, and the optical densities observed were plotted versus the amounts of HNE added to generate a standard curve.
To test the ability of a serine elastase inhibitor to inhibit human neutrophil elastase (HNE), a standard amount of 0.125 μg HNE was mixed with increasing amounts of a serine elastase inhibitor before addition of the elastase substrate described in Example 3.
0.02 μg of human neutrophil elastase (HNE), was incubated with 2 mg/ml of Model surfactant mixture, 100 μg/ml of a serine elastase inhibitor, or both Model surfactant mixture and the serine elastase inhibitor together. The HNE activity remaining was assayed using the calorimetric assay described above. The result is represented graphically in FIG. 8.

[2] = test system: elastase activity in rabbit BAL fluids; test: Elastase activity in rabbit BAL fluids after addition of serine elastase inhibitor; assay type: biochemical; conditions: 100 μg/ml inhibitor added to BAL fluids of six anti-BSA/BSA treated rabbits
Method: Six rabbits were treated with 3 mg anti-BSA/kg (rabbits 6098 and 6099) or 5 mg anti-BSA/kg (rabbits 6100-6103) was instilled intratracheally and 10 mg of BSA was given intravenously (6098-6101) to induce respiratory distress. Bronchoalveolar lavage (BAL) fluids were taken from the lungs of these rabbits six hours after the treatment and a colorimetric assay of elastase activity was performed on these BAL fluids. Elastase activity is expressed as the concentration of HNE that gives a corresponding OD at 410 nm. Additionally, the same assay was performed after the addition of 100 μg/ml of a serine elastase inhibitor to the BAL fluids.

[3] = test system: rabbits injured with LPS and PMA; test: LPS/PMA-induced pulmonary injury in rabbits (ARDS Rabbit Model), terminal lavage analysis; assay type: in vivo
Method: The effects of Model surfactant mixture, the serine elastase inhibitor, and the combination of the two on pulmonary inflammation were evaluated on an ARDS Rabbit Model. These experiments are described in details in Examples 8 to 12. Twenty (20) rabbits were divided into five groups for this study. Pulmonary inflammation was induced in Groups 1-4 rabbits from stimulation by lavaging with bacterial lipopolysaccharide (LPS) and, 3 hours later, with phorbol myristate acetate (PMA). Additionally, as treatment, Group 2 rabbits received Model surfactant mixture, Group 3 rabbits received the serine elastase inhibitor, and Group 4 animals received both Model surfactant mixture and the serine elastase inhibitor. Group 5 rabbits were normal rabbits and were used as control. The animals were sacrificed at six (6) hr., the right lower lobe was lavaged three times and the lavage fluids were pooled (terminal lavage) for each animal. The level of injury and the effect of the treatments were measured by the amount of basement membrane protein fragments and red blood cells found in terminal lavage fluids.
LPS: Minn (List Biological). 5 mg vial. Animals were treated by quantitative lavage leaving 120 μg/kg in 8 ml/kg.
PMA: (Sigma) diluted in saline or Model surfactant mixture to 5 μg/mL Used 20 ml/kg/rabbit for lavage, leaving 20% of the dosage in the animal.
Model surfactant mixture: (Discovery Labs) 10 mg/ml. Use 20 ml/kg/rabbit for lavage, leaving 20% of the dosage in the animal.
Serine Elastase Inhibitor. Elafin (Astra-Zeneca) 3 mg/ml stock, dialyzed against saline to remove azide: 1.3 ml/kg Elafin was administered intravenously at 1.5 hr., 0.33 ml/kg was administered intratracheally (×2 sides) at 3 hr., and 0.66 ml/kg was administered intravenously at 4.5 hr.
Twenty NZW rabbits are divided into five (5) treatment groups with four (4) animals each. Lung injury is induced by two lavages with LPS in saline and one PMA treatment administered by lavage at 3 hr. Serine elastase inhibitor and Model surfactant mixture were separately and jointly tested to ascertain the degree to which these factors could reduce symptoms of inflammation. Treatments received by the different groups are as follows:
Group 1: The animals received two lavages with LPS in saline and one PMA treatment administered by lavage at 3 hr. A dosage of ^125I-BSA was given to the animals intravenously at 5.5 hr. and the animals were sacrificed at 6 hr.
Group 2: The animals received two lavages with LPS in saline, one PMA and Model surfactant mixture treatment administered by lavage at 3 hr. A dosage of ^125I-BSA was given to the animals intravenously at 5.5 hr. and the animals were sacrificed at 6 hr.
Group 3: The animals received two lavages with LPS in saline and one PMA treatment administered by lavage at 3 hr. […]

[4] = target: T1, human neutrophil elastase (HNE); test: Inhibition of HNE by terminal lavage fluid of treated rabbits; assay type: biochemical; conditions: 0.02 μg HNE with 50 μl terminal lavage fluid of one representative rabbit per group
Method: The presence of elastase inhibitor(s) (or the residual activity) in the terminal lavage fluids prepared as described in Example 8) was tested. 0.02 μg of human neutrophil elastase (HNE), was incubated with 50 μl of terminal lavage fluid of one representative rabbit from each experimental group (Groups 1-5). HNE activities are assayed using the colorimetric assay as described in Example 1. The assay results are presented graphically in FIG. 9.

[5] = test system: Phospholipase A2 (PLA2); conditions: 30 min incubation, lavage fluid of rabbit 6015, increasing amounts of inhibitor
Method: Terminal lavage fluid was collected from rabbits experiencing pulmonary injury initiated by the intratracheal administration of partially purified antibodies directed against BSA (anti-BSA antibodies). Palmitoyl, oleoyl phosphotidylglycerol (POPG, Avanti Polar Lipids) was added to the lavage fluid as a substrate for detecting PLA2 activity in the lavage fluid. Prior to addition of the POPG substrate, the mixture was adjusted to a final concentration of 10 mM CaCl2, 100 mM KCl and 25 mM Tris-Cl, pH 8.5. This mixture was incubated at 37° C. Aliquots were removed over time and the amount of oleic acid released from the POPG substrate was measured by high pressure liquid chromatography (HPLC). The amount of oleic acid released was quantified from the height of the peak at 4.59 min elution time from a C-18 HPLC column, as measured by the absorbance at 207 nm.
BSA and anti-BSA antibodies were administered to rabbit 6015 and lavage fluids were obtained from rabbit 6015 as described in the previous Example. […] This mixture was incubated for 15 min. at 37° C. before addition of POPG substrate. PLA2 activity was measured using the height of the eluted oleic acid HPLC peak, as described in previous Examples.

[6] = test system: rabbits injured with LPS and PMA; test: LPS/PMA lung injury in rabbits treated with anti-oxidant catalase; assay type: in vivo, rabbit; conditions: for Albumin In BALF / BALF RBCs / Compliance / PaCO2 6 hr / PaO2 4.5 hr / PaO2 6 hr / Wet:Dry weight / Gross Pathology / Histologic Pathology: average ± SEM; for Wet:Dry weight: lung; for Gross Pathology / Histologic Pathology: on a scale of 0–4
Method: Procedures employed were similar to those used in the foregoing Examples. Lung injury is induced in rabbits (1.0-1.5 kg) by bronchoalveolar lavage (BAL) using 5 μg/ml bacterial LPS in saline at a dosage of 20 ml/kg. At 2.5 hrs after LPS administration, the rabbits received 20 ml/kg phorbol myristate acetate (PMA) by bronchoalveolar lavage. At 2.5 hours after LPS administration, animals in group 1 received the anti-oxidant catalase intratracheally. Animals in group 2 received catalase intratracheally and intravenously. Animals in group 3 received catalase intratracheally and intravenously, as well as 5mg/ml Model Surfactant Mixture (KL4) intratracheally. Animals in group 4 received no further treatment (control). The rabbits were ventilated at PIP […] PEEP 3 cm H2O pressure. The study was terminated at 6 hrs. Values in Tables 6 and 7 are averages+standard error of the mean (SEM).

[7] = catalase IT & IV (combination: plus 5mg/ml Model Surfactant Mixture IT)

Molecule: Elafin (AQEPVKGPVSTKPGSCPIILIRCAMLNPPNRCLKDTDCPGIKKCCEGSCGMACFVPQ) [serine elastase inhibitor, Elafin (Astra-Zeneca) 3 mg/ml stock, dialyzed against saline]
- HNE activity remaining ([1]; 0.02 μg HNE, Model surfactant mixture 2 mg/ml, serine elastase inhibitor 100 μg/ml): Significant inhibition
- HNE activity (OD410) versus log of amount of inhibitor ([1]; 0.125 μg HNE, increasing amounts of inhibitor, in vitro): HNE activity is inhibited in vitro
- Elastase activity in BAL fluids after added inhibitor [2]: inhibited in five out of the six BAL fluids; also recorded: In all cases, the elastase activity was inhibited
- number of RBCs in terminal lavage fluid ([3]; 6 hr post LPS/PMA injury): greater reduction in injury
- amount of protein in terminal lavage fluid ([3]; 6 hr post LPS/PMA injury, versus injured untreated group): failure of group 3, which received elastase inhibitor alone, to show a reduction in protein levels
- mean protein value in terminal lavage fluid, one aberrant animal excluded ([3]; Group 3, 6 hr post LPS/PMA injury): 1.72 mg/mL
- basement membrane damage (Western blot of basement membrane proteins in BAL fluid) ([3]; terminal lavage fluid, LPS/PMA injured rabbits): Amelioration of the damage in the basement membrane is observed
- inhibition of HNE activity by terminal lavage fluid [4]: highly significant

Molecule: CCc1c(CC(N)=O)c2cc(OCCCP(=O)(O)O)ccc2n1Cc1ccccc1 [LY311727]
- PLA2 activity (release of oleic acid from POPG) [5]: decreasing amounts of PLA2 activity were observed

Molecule: catalase
- lung function (overall) ([6]; LPS/PMA injured rabbits, study terminated at 6 hrs): significantly improve lung function
- Albumin In BALF [6, 7]: 0.50 ± 0.11
- BALF RBCs [6, 7]: 2.3 ± 1.2 ×10^3
- Compliance [6, 7]: 8.4 ± 0.3 ml at 12 cm H2O/Kg
- PaCO2 6 hr [6, 7]: 36 ± 5
- PaO2 4.5 hr [6, 7]: 129 ± 19
- PaO2 6 hr [6, 7]: 124 ± 22
- Wet:Dry weight [6, 7]: 8.0 ± 0.6
- Gross Pathology [6, 7]: 1.1 ± 0.4
- Histologic Pathology [6, 7]: 2.9 ± 0.8
- Albumin In BALF ([6]; catalase IT): 0.65 ± 0.16
- BALF RBCs ([6]; catalase IT): 6.1 ± 3.6 ×10^3
- Compliance ([6]; catalase IT): 10.1 ± 1.8 ml at 12 cm H2O/Kg
- PaCO2 6 hr ([6]; catalase IT): 40 ± 3
- PaO2 4.5 hr ([6]; catalase IT): 128 ± 15
- PaO2 6 hr ([6]; catalase IT): 119 ± 15
- Wet:Dry weight ([6]; catalase IT): 7.4 ± 0.4
- Gross Pathology ([6]; catalase IT): 1.6 ± 0.6
- Histologic Pathology ([6]; catalase IT): 2.7 ± 0.6
